# What was measured:
# [1] = system: Pane 1 pancreatic cancer cells; assay: MTS cell viability assay; assay type: cell-based; details: 24 hrs; 3.2 μM liposomes; 0.01, 0.1 or 1 μM vinblastine; p<0.05 free vs encapsulated vinblastine
# Protocol: Pane 1 pancreatic cancer cells were treated with 3.2 μM anionic (A) and neutral ceramide (C6) or non-ceramide nanoliposomes that either contained 0.01, 0.1 or 1 μM vinblastine or PBS. Ghost liposomes contained no ceramide or vinblastine. Unencapsulated (free) vinblastine was also administered at similar concentrations. All treatments were for 24 hrs.
# Cell viability was assessed by MTS assay, which measures cellular respiration as a function of reduction of MTS to formazene at 490 nm. […] N=6 individual samples for each condition, replicated in triplicate.
# MTS (3-(4,5-dimethylthiazol-2-yl)-5-(3-carboxymethoxyphenyl)-2-(4-sulfophenyl)-2H-tetrazolium), in the presence of phenazine methosulfate (PMS), produces a reduced formazan product, whose purple color can be assessed. In living cells, reduced formazan has an absorbance maximum at 490-500 nm in phosphate-buffered saline. The MTS assay is often described as a ‘one-step’ MTT assay, which offers the convenience of adding the reagent straight to the cell culture without the intermittent steps required in the MTT assay. However this convenience makes the MTS assay susceptible to cololmetric interference as the intermittent steps in the MTT assay remove traces of colored compounds, whilst these remain in the microtiter plate in the one-step MTS assay.
# primary human AML cells = assay: Clonogeneic growth in semisolid media; assay type: cell-based; details: 12-14 days in semi-solid medium; FIG. 3A
# Text: For FIG. 3A, primary human AML cells (n=5) were thawed and grown for 12-14 days in semi-solid medium with the indicated concentration of Lip-C6 or Lip-ghost and/or vinblastine.
structure (smiles),measurement,setting,value
CC[C@]1(O)C[C@@H]2CN(CCc3c([nH]c4ccccc34)[C@@](C(=O)OC)(c3cc4c(cc3OC)N(C)[C@H]3[C@@](O)(C(=O)OC)[C@H](OC(C)=O)[C@]5(CC)C=CCN6CC[C@]43[C@@H]65)C2)C1 [vinblastine],cell viability (MTS),[1],Only the high concentration of free vinblastine reduced cell viability
same,growth and survival / colony formation,primary human AML cells,potentiates the inhibitory activity of C6 ceramide nanoliposomes

# From patent US8747891B2, “Ceramide anionic liposome compositions” (The Penn State Research Foundation, priority 2011, dated 2014)
